In US20120115845A1, “THERAPEUTIC AGENTS” (priority 2007, published 2012):

Columns and labels:
human GHS receptor [1] = molecular target: T1, human GHS receptor (Homo sapiens, UniProt Q92847); test: Ghrelin IP1 agonist assay (IP1 HTRF); format: cell-based; design: expressed in transfected cells; host or cells: HEK293s; conditions: for Emax: 2 h, agonist effect as % maximal effect of GHRP-6 (5 μM), read-out: h IP1 ag %; for EC50: HEK293s cells stably expressing human GHS receptor, 2 hours at 37° C., read-out: h IP1 ag EC50
Protocol: In HEK293s cells stably expressing human GHS receptor (In-house), agonist activity was assessed by measuring intracellular myo-Inositol 1 phosphate (IP1) using the IP1 HTRF assay kit (Cisbio International).
Cells were harvested using accutase (Sigma), spun down at 1000 rpm for 5 minutes and resuspended in stimulation buffer (as above) containing 0.02% fatty acid free BSA at a density of 1.43E6cells/ml.
Agonist effect of the compound was expressed as % maximal effect of GHRP-6 (5 μM: Bachem). Sigmoidal curves were fitted by Origin 7.5 Client and EC50 values determined.

human GHS receptor [2] = molecular target: T1, human GHS receptor; test: h bind IC50 (binding assay, Table 1); conditions: for IC50: human receptor, Table 1

T1 sequence (Q92847 whole entry): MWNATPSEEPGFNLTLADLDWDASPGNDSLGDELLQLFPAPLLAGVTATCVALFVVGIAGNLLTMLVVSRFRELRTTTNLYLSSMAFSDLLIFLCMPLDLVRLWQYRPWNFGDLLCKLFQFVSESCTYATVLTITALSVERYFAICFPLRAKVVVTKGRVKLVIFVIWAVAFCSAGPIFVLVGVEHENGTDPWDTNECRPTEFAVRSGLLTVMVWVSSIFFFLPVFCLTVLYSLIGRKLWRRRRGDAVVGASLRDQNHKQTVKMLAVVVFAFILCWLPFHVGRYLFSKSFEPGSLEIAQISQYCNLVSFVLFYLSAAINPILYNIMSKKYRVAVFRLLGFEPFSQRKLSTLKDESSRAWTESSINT

Emax (human GHS receptor [1]) | EC50 (human GHS receptor [1]) | IC50 (human GHS receptor [2]) | SMILES | IC50 in the binding assay (human GHS receptor [2])
65% | 18.7 nM | 15.4 nM | O=C(NC(=O)c1ccccc1Cl)Nc1nc2ccc(S(=O)(=O)CCC3CCNCC3)cc2s1 [Example 221, 2-Chloro-N-[[6-[2-(4-piperidyl)ethylsulfonyl]benzothiazol-2-yl]carbamoyl]benzamide] | 
22.7% | 184 nM | 111 nM | CCc1ccccc1C(=O)NC(=O)Nc1nc2ccc(S(C)(=O)=O)cc2s1 [Example 141, 2-Ethyl-N-[(6-methylsulfonylbenzothiazol-2-yl)carbamoyl]benzamide] | 
32.1% | 11 nM | 10.8 nM | CC(=O)N1CCN(CCCS(=O)(=O)c2ccc3nc(NC(=O)NC(=O)c4ccccc4Cl)sc3c2)CC1 [Example 198, N-[[6-[3-(4-Acetylpiperazin-1-yl)propylsulfonyl]benzothiazol-2-yl]carbamoyl]-2-chloro-benzamide] | 
9.26% | 15700 nM | 24.3 nM | Cc1ccc(C)n1-c1ccc(C(=O)NC(=O)Nc2nc3ccc(S(C)(=O)=O)cc3s2)c(Cl)c1 [Example 119, 2-Chloro-4-(2,5-dimethylpyrrol-1-yl)-N-[(6-methylsulfonylbenzothiazol-2-yl)carbamoyl]benzamide] | 
64.6% | 54 nM | 36.8 nM | CN(C)C1CC(S(=O)(=O)c2ccc3nc(NC(=O)NC(=O)c4ccccc4Cl)sc3c2)C1 (stereo not shown) [Example 216, 2-Chloro-N-[[6-(3-dimethylaminocyclobutyl)sulfonylbenzothiazol-2-yl]carbamoyl]benzamide] | 
0% | ≥ 25000 nM | 81.6 nM | CS(=O)(=O)c1ccc2nc(NC(=O)NC(=O)c3cc(-n4ccnn4)ccc3Cl)sc2c1 [Example 47, 2-Chloro-5-[1,2,3]triazol-1-yl-N-(6-(methylsulfonyl)benzothiazol-2-ylcarbamoyl)benzamide] | 
34.1% | 64.4 nM | 100 nM | O=C(NC(=O)c1ccccc1Cl)Nc1nc2ccc(S(=O)(=O)CCN3CC[C@H](F)C3)cc2s1 [Example 16, 2-Chloro-N-[[6-[2-[(3S)-3-fluoropyrrolidin-1-yl]ethylsulfonyl]benzothiazol-2-yl]carbamoyl]benzamide] | 
54.4% | 0.633 nM | 49 nM | CS(=O)(=O)c1ccc2nc(NC(=O)NC(=O)c3cc(C(F)(F)F)ccc3Cl)sc2c1 [Example 181, 2-Chloro-N-[(6-methylsulfonylbenzothiazol-2-yl)carbamoyl]-5-(trifluoromethyl)benzamide] | 
34.7% | 13.8 nM | 189 nM | O=C(NC(=O)c1ccccc1Cl)Nc1nc2ccc(S(=O)(=O)CCNC3CCC3)cc2s1 [Example 25, 2-Chloro-N-[[6-[2-(cyclobutylamino)ethylsulfonyl]benzothiazol-2-yl]carbamoyl]benzamide] | 
24% | 29.2 nM | 64.4 nM | O=C(NC(=O)c1ccccc1Cl)Nc1nc2ccc(S(=O)(=O)CCN3CCOCC3)cc2s1 [Example 1, 2-Chloro-N-[[6-(2-morpholin-4-ylethylsulfonyl)benzothiazol-2-yl]carbamoyl]benzamide] | 
0% | ≥ 20000 nM | 58.9 nM | CCOc1cc(C(=O)NC(=O)Nc2nc3ccc(S(=O)(=O)C4CCN(C)CC4)cc3s2)c(Cl)cc1OC [Example 256, 2-chloro-5-ethoxy-4-methoxy-N-(6-(1-methylpiperidin-4-ylsulfonyl)benzo [d]thiazol-2-ylcarbamoyl) benzamide] | 
69% | 9.58 nM | 14.4 nM | O=C(NC(=O)c1ccccc1Cl)Nc1nc2ccc(S(=O)(=O)CCCN3CCNCC3)cc2s1 [Example 206, 2-Chloro-N-[[6-(3-piperazin-1-ylpropylsulfonyl)benzothiazol-2-yl]carbamoyl]benzamide] | 
0% | ≥ 25000 nM | 448 nM | CS(=O)(=O)c1ccc2nc(NC(=O)NC(=O)c3cc(S(N)(=O)=O)ccc3Cl)sc2c1 [Example 138, 2-Chloro-N-[(6-methylsulfonylbenzothiazol-2-yl)carbamoyl]-5-sulfamoyl-benzamide] | 
 |  | 1050 nM | CC1CN(CCS(=O)(=O)c2ccc3nc(NC(=O)NC(=O)c4ccccc4Cl)sc3c2)CC(C)O1 (stereo not shown) [Example 19, 2-Chloro-N-[[6-[2-(2,6-dimethylmorpholin-4-yl)ethylsulfonyl]benzothiazol-2-yl]carbamoyl]benzamide] | 
 |  | 139 nM | CC(C)N1CCC(S(=O)(=O)c2ccc3nc(NC(=O)NC(=O)c4ccccc4Cl)sc3c2)CC1 [Example 174, 2-Chloro-N-[[6-[(1-propan-2-yl-4-piperidyl)sulfonyl]benzothiazol-2-yl]carbamoyl]benzamide] | 
 |  | 762 nM | CN(C)CC1CCN(c2ccc(Cl)c(C(=O)NC(=O)Nc3nc4ccc(S(C)(=O)=O)cc4s3)c2)C1 (stereo not shown) [Example 270, 2-Chloro-5-[3-(dimethylaminomethyl)pyrrolidin-1-yl]-N-[(6-methylsulfonyl-1,3-benzothiazol-2-yl)carbamoyl]benzamide] | 

Emax (human GHS receptor [1]) | EC50 (human GHS receptor [1]) | IC50 (human GHS receptor [2]) | SMILES | IC50 in the binding assay (human GHS receptor [2])
 |  | 33.7 nM | CN1CCC(S(=O)(=O)c2ccc3nc(NC(=O)NC(=O)c4ccccc4Cl)sc3c2)CC1 [Example 184, 2-Chloro-N-[[6-[(1-methyl-4-piperidyl)sulfonyl]benzothiazol-2-yl]carbamoyl]benzamide] | 
 |  | 1820 nM | COCCS(=O)(=O)c1ccc2nc(NC(=O)NC(=O)c3ccccc3Cl)sc2c1 [Example 40, 2-Chloro-N-[[6-(2-methoxyethylsulfonyl)benzothiazol-2-yl]carbamoyl]benzamide] | 
 |  | 11.4 nM | COCCNCCCS(=O)(=O)c1ccc2nc(NC(=O)NC(=O)c3cc(-n4cccc4)ccc3Cl)sc2c1 [Example 76, 2-Chloro-N-[[6-[3-(2-methoxyethylamino)propylsulfonyl]benzothiazol-2-yl]carbamoyl]-5-pyrrol-1-yl-benzamide] | 
 |  | 613 nM | CCN1CCC(S(=O)(=O)c2ccc3nc(NC(=O)NC(=O)c4ccccc4Cl)sc3c2)C1 (stereo not shown) [Example 163, 2-Chloro-N-[[6-(1-ethylpyrrolidin-3-yl)sulfonylbenzothiazol-2-yl]carbamoyl]benzamide] | 
 |  | 179 nM | CC1(NCCS(=O)(=O)c2ccc3nc(NC(=O)NC(=O)c4ccccc4Cl)sc3c2)CC1 [Example 39, 2-Chloro-N-[[6-[2-[(1-methylcyclopropyl)amino]ethylsulfonyl]benzothiazol-2-yl]carbamoyl]benzamide] | 
 |  |  | COc1cc(Cl)c(C(=O)NC(=O)Nc2nc3ccc(S(C)(=O)=O)cc3s2)cc1OC [2-chloro-4,5-dimethoxy-N-[(6-methylsulfonyl-1,3-benzothiazol-2-yl)carbamoyl]benzamide] | did not have IC50s in the range of about 0.001 μM to about 10 μM
 |  | 13.2 nM | O=C(NC(=O)c1ccccc1Cl)Nc1nc2ccc(S(=O)(=O)C3CCNCC3)cc2s1 [Example 176, 2-Chloro-N-[[6-(4-piperidylsulfonyl)benzothiazol-2-yl]carbamoyl]benzamide] | 
 |  | 177 nM | COCCOCCS(=O)(=O)c1ccc2nc(NC(=O)NC(=O)c3ccccc3Cl)sc2c1 [Example 42, 2-Chloro-N-[[6-[2-(2-methoxyethoxy)ethylsulfonyl]benzothiazol-2-yl]carbamoyl]benzamide] | 
 |  | 7.1 nM | CC(C)NCCS(=O)(=O)c1ccc2nc(NC(=O)NC(=O)c3cc(-n4cccc4)ccc3I)sc2c1 [Example 84, 2-Iodo-N-(6-(2-(isopropylamino)ethylsulfonyl)benzothiazol-2-ylcarbamoyl)-5-(1H-pyrrol-1-yl)benzamide] | 
 |  | 1120 nM | CN(C)CCS(=O)(=O)c1ccc2nc(NC(=O)NC(=O)c3ccccc3Cl)sc2c1 [Example 3, 2-Chloro-N-[[6-(2-dimethylaminoethylsulfonyl)benzothiazol-2-yl]carbamoyl]benzamide] | 
 |  | 60.9 nM | CCN1CCN(CCS(=O)(=O)c2ccc3nc(NC(=O)NC(=O)c4ccccc4Cl)sc3c2)CC1 [Example 29, 2-Chloro-N-[[6-[2-(4-ethylpiperazin-1-yl)ethylsulfonyl]benzothiazol-2-yl]carbamoyl]benzamide] | 
 |  | 1.5 nM | CC(C)Oc1cc(Cl)c(C(=O)NC(=O)Nc2nc3ccc(S(=O)(=O)C4CCN(C)CC4)cc3s2)cc1-n1cccn1 [Example 267, 2-chloro-4-isopropoxy-N-(6-(1-methylpiperidin-4-ylsulfonyl)benzo [d]thiazol-2-ylcarbamoyl) 5-(1H-pyrazol-1-yl)benzamide] | 
 |  |  | CS(=O)(=O)c1ccc2nc(NC(=O)NC(=O)c3cc(F)ccc3Cl)sc2c1 [2-chloro-5-fluoro-N-[(6-methylsulfonylbenzothiazol-2-yl)carbamoyl]benzamide] | did not have IC50s in the range of about 0.001 μM to about 10 μM
 |  | 184 nM | O=C(NC(=O)c1ccccc1Cl)Nc1nc2ccc(S(=O)(=O)CCNCC3CCCO3)cc2s1 (stereo not shown) [Example 22, 2-Chloro-N-[[6-[2-(oxolan-2-ylmethylamino)ethylsulfonyl]benzothiazol-2-yl]carbamoyl]benzamide] | 
 |  | 403 nM | O=C(NC(=O)c1ccccc1Cl)Nc1nc2ccc(S(=O)(=O)CCN3CCC(O)C3)cc2s1 (stereo not shown) [Example 5, 2-Chloro-N-[[6-[2-(3-hydroxypyrrolidin-1-yl)ethylsulfonyl]benzothiazol-2-yl]carbamoyl]benzamide] | 

SMILES | Emax (human GHS receptor [1]) | EC50 (human GHS receptor [1]) | IC50 (human GHS receptor [2]) | IC50 in the binding assay (human GHS receptor [2])
O=C(NC(=O)c1cc(-n2cccc2)ccc1Cl)Nc1nc2ccc(S(=O)(=O)CCCN3CCC3)cc2s1 [Example 74, N-[[6-[3-(Azetidin-1-yl)propylsulfonyl]benzothiazol-2-yl]carbamoyl]-2-chloro-5-pyrrol-1-yl-benzamide] |  |  | 1 nM | 
